{"source": "patent US20250273333A1", "about": "“Methods and Apparatus for Diagnosis of Progressive Kidney Function Decline Using a Machine Learning Model” (ICAHN SCHOOL OF MEDICINE AT MOUNT SINAI, priority 2020, published 2025)", "format_in_all_cases": "in vivo, human", "key": {"[1]": {"system": "participants with type 2 diabetes and prevalent DKD", "experiment": "CANVAS trial post hoc analysis: composite kidney outcome, canagliflozin vs placebo, by KidneyIntelX risk strata", "settings": "for incidence of the composite kidney outcome: canagliflozin arm", "experimental": "(§1) Blood and urine samples for exploratory biomarker research can be stored during the CANVAS trial. In some instances, participants can be randomly assigned using a central web-based response system in a 1:1:1 ratio to treatment with 100 mg canagliflozin, 300 mg canagliflozin, or matching placebo. In some instances, participants can be assigned to treatment with canagliflozin or placebo followed for a median of 6.1 years. All participants, care providers, trial staff, and outcome assessors can be blinded to treatment allocation for the duration of the study. KidneyIntelX algorithm can be indicated for individuals with type 2 diabetes and prevalent DKD, defined by an eGFR ≥30 to 59.9 ml/min/1.73 m2 (G3a and G3b) or those with eGFR ≥60 ml/min/1.73 m2 with a UACR ≥30 mg/g to assess the risk for progressive decline in kidney function within a time period (e.g., 5 years). Thus, for analyses, the subgroup of the CANVAS population can be restricted to meet criteria for prevalent DKD at a time of enrollment.\n(§2) A composite kidney outcome for such post hoc analysis can be defined as: A) progressive decline in kidney function (rapid kidney function decline (e.g., RKFD; with eGFR decline of ≥5 ml/min/year)); B) a sustained 40% decline of eGFR; or C) kidney failure defined as an eGFR <15 mL/min/1.73 m^2 or need for dialysis or kidney transplantation. In CANVAS, eGFR measurements were available at baseline, 6 weeks and annually. Since hemodynamic effects of SGLT2i on acute changes in eGFR, the anchor/baseline to define progressive decline in kidney function and 40% decline in eGFR for participants in the canagliflozin arm can be the eGFR value at 6 weeks. In some instances, when the eGFR value meet ≥40% decline from baseline only on the last eGFR obtained in the CANVAS protocol, then the event can be adjudicated by a blinded adjudication committee to determine qualification as a valid event. In some instances, eGFR slopes can be determined by linear mixed models.\nContinuous baseline variables with normal distributions can be reported as means with standard deviations (SDs). Variables with skewed distributions can be reported as median values with interquartile range (IQRs) and can be natural logarithm transformed before analysis. Furthermore, categorical variables can be reported as percentages. Risk values can be calculated by the KidneyIntelX (using the diagnosis device 101) on the participants in the placebo and canagliflozin arms of CANVAS with prevalent DKD, with the inputs as per the currently commercially available test which include the following: baseline TNFR-1, TNFR-2 and KIM-1 levels, TNFR-2/TNFR-1 ratio, KIM-1/TNFR-1 ratio, eGFR, UACR, HbA1C, systolic BP, AST, platelets, and serum calcium. The risk score cutoffs that were previously validated can applied to the CANVAS participants with DKD and available baseline plasma. Each individual can be allocated a predicted probability of the composite outcome using the baseline inputs as per the risk value generated by the KidneyIntelX algorithm and a continuous KidneyIntelX score between 5 and 100 in increments of 5. For example, consistent with the pre-defined commercial cut offs, participants with a risk value between 5 and 45 can be classified as “low risk”, between 50 and 85 can be classified as “intermediate risk”, and those with a risk value between 90 and 100 can be classified as “high risk”. Therefore, by determining proportion experiencing the composite kidney event within the categorical risk strata and used logistic regression, the relative odds of the endpoint for high vs. low risk and intermediate risk score strata can be determined.\nProportion of participants that experienced composite kidney outcome by KidneyIntelX algorithm risk strata can be compared to a proportion as classified by participants' Kidney Disease Improving Global Outcomes (KDIGO) KDIGO risk strata based on their baseline eGFR and UACR value. […]"}, "[2]": {"system": "participants with type 2 diabetes and prevalent DKD", "experiment": "CANVAS trial post hoc analysis: KidneyIntelX risk score over time, canagliflozin vs placebo", "experimental": "Blood and urine samples for exploratory biomarker research can be stored during the CANVAS trial. In some instances, participants can be randomly assigned using a central web-based response system in a 1:1:1 ratio to treatment with 100 mg canagliflozin, 300 mg canagliflozin, or matching placebo. In some instances, participants can be assigned to treatment with canagliflozin or placebo followed for a median of 6.1 years. All participants, care providers, trial staff, and outcome assessors can be blinded to treatment allocation for the duration of the study. […]\nContinuous baseline variables with normal distributions can be reported as means with standard deviations (SDs). […] Risk values can be calculated by the KidneyIntelX (using the diagnosis device 101) on the participants in the placebo and canagliflozin arms of CANVAS with prevalent DKD, with the inputs as per the currently commercially available test which include the following: baseline TNFR-1, TNFR-2 and KIM-1 levels, TNFR-2/TNFR-1 ratio, KIM-1/TNFR-1 ratio, eGFR, UACR, HbA1C, systolic BP, AST, platelets, and serum calcium. […] Therefore, by determining proportion experiencing the composite kidney event within the categorical risk strata and used logistic regression, the relative odds of the endpoint for high vs. low risk and intermediate risk score strata can be determined. […]"}, "[3]": {"system": "participants with type 2 diabetes and prevalent DKD", "experiment": "CANVAS trial post hoc analysis: chronic eGFR slope, canagliflozin vs placebo, by risk strata", "experimental": "as §1, §2\nTo explore whether baseline KidneyIntelX scores modified the treatment effect of canagliflozin versus placebo on the composite kidney outcome and chronic eGFR compared to the treatment effect as per the baseline KDIGO risk strata, tests for heterogeneity can be performed by adding interaction terms between KidneyIntelX or KDIGO and randomized treatment assignment to the relevant logistic regression models for the categorical outcome and mixed linear models for the eGFR slopes. The treatment effect of canagliflozin versus placebo on KidneyIntelX risk scores over time can be assessed by calculating the difference of change in risk values generated by the KidneyIntelX algorithm (e.g., using the diagnosis device 101) between treatment arms using mixed linear models. […]"}}, "note": "“And” between values parts separate entries of the source, which are not always exact repeats. Identical values can stand only once."}
{"smiles": "Cc1ccc([C@@H]2O[C@H](CO)[C@@H](O)[C@H](O)[C@H]2O)cc1Cc1ccc(-c2ccc(F)cc2)s1", "note": "[canagliflozin, (2S,3R,4R,5S,6R)-2-[3-[[5-(4-fluorophenyl)thiophen-2-yl]methyl]-4-methylphenyl]-6-(hydroxymethyl)oxane-3,4,5-triol]", "values": [{"measurement": "RR for composite kidney outcome, canagliflozin vs. placebo", "setting": "[1]; all participants with baseline biomarkers, 95% CI 0.49, 0.99", "result": 0.70}, {"measurement": "incidence of the composite kidney outcome", "setting": "[1]; high risk KidneyIntelX stratum", "result": "23.0% and 23.5%"}, {"measurement": "incidence of the composite kidney outcome", "setting": "[1]; intermediate risk KidneyIntelX stratum, mean follow-up 5.6 years", "result": 9.5, "unit": "%"}, {"measurement": "incidence of the composite kidney outcome", "setting": "[1]; low risk KidneyIntelX stratum, mean follow-up 5.6 years", "result": 3.6, "unit": "%"}, {"measurement": "composite kidney outcome occurrence", "setting": "[1]; canagliflozin group, all participants with baseline biomarkers (placebo 11.6%)", "result": 8.9, "unit": "%"}, {"measurement": "RR for the kidney outcome, canagliflozin vs. placebo", "setting": "[1]; high-risk KidneyIntelX stratum, 95% CI 0.38-1.18", "result": 0.67}, {"measurement": "absolute risk reduction (ARR) for composite kidney outcome", "setting": "[1]; high-risk KidneyIntelX stratum, vs placebo arm 31.4%", "result": 7.9, "unit": "%"}, {"measurement": "RR for the kidney outcome, canagliflozin vs. placebo", "setting": "[1]; intermediate KidneyIntelX stratum, 95% CI 0.36-0.98", "result": 0.59}, {"measurement": "RR for the kidney outcome, canagliflozin vs. placebo", "setting": "[1]; low-risk KidneyIntelX stratum, 95% CI 0.54-5.08", "result": 1.65}, {"measurement": "duration of effect on KidneyIntelX", "setting": "[2]; over follow-up, vs placebo (FIG. 24)", "result": "persisted over time until the end of follow-up"}, {"measurement": "decrease of KidneyIntelX from baseline to one year", "setting": "[2]; randomized to canagliflozin, 95% CI -6.9 to -3.9, placebo increased 6.2%, p<0.001", "result": 5.4, "unit": "%"}, {"measurement": "difference in chronic eGFR slope, canagliflozin vs. placebo (protection for eGFR decline)", "setting": "[3]; high risk KidneyIntelX stratum", "result": 2.16, "unit": "ml/min/1.73 m2"}, {"measurement": "difference in chronic eGFR slope, canagliflozin vs. placebo", "setting": "[3]; highest risk KDIGO stratum", "result": 1.31, "unit": "ml/min/1.73 m2"}, {"measurement": "difference in chronic eGFR slope, canagliflozin vs. placebo (protection for eGFR decline)", "setting": "[3]; low risk KidneyIntelX stratum", "result": 0.66, "unit": "ml/min/1.73 m2"}, {"measurement": "difference in chronic eGFR slope, canagliflozin vs. placebo (protection for eGFR decline)", "setting": "[3]; moderate/intermediate risk KidneyIntelX stratum", "result": 1.52, "unit": "ml/min/1.73 m2"}]}
